These results are taken from patent US10632202B2, “Preservative containing compositions” (JOHNSON & JOHNSON CONSUMER INC., priority 2016, dated 2020).

The subject of this experiment is fungi. Nature of the experiment: Observed contribution of nutrients to antifungal activity. The format is cell-based. The note with it: nutrient of the antimicrobial mixture.
In the case of `O=C1O[C@H]([C@@H](O)CO)C(O)=C1O` [ascorbic acid], the “contribution to the antifungal activity of the antimicrobial mixture” value (“contribution to the antifungal activity” below) was “contribute minimally”.

On to `O=C(O)CC(O)(CC(=O)O)C(=O)O` [citrate], for which the “contribution to the antifungal activity” value is listed as “contribute minimally”. With `NCC(=O)O` [glycine], the “contribution to the antifungal activity” value is reported as “contribute minimally”. Consider `CC(O)C(=O)O` (stereo not shown) [lactate], for which the “contribution to the antifungal activity” value is “follows the glucose with regard to the significance of its contribution”.
